In patent US11453897B2, “Method for producing aminobenzoic acid or an aminobenzoic acid derivative product” (Covestro Intellectual Property GmbH & Co. KG, priority 2018, dated 2022):

Experiment: Dissolution of calcium ortho-aminobenzoate by salt exchange with ammonium ions (ammonium carbonate stock solution)
Assay type: physicochemical
Protocol: 48.0 g of anhydrous calcium chloride was added to 1.00 L of fermentation broth. The pH was adjusted to a value of 7.0 by adding hydrochloric acid. 100 g of ortho-aminobenzoic acid (dissolved in sodium hydroxide solution at pH 7.0) was then added to this mixture by adding 200 mL of oAB STOCK SOLUTION. There was briefly precipitation of calcium ortho-aminobenzoate. The concentration of dissolved ortho-aminobenzoic acid measured in the aqueous phase was 18.0 g/L. The solids fraction of the mixture was filtered off and dried at 80° C. for 48 h. In this way, 110 g of dried solid material was obtained. 20.0 g of that was added to 50.0 mL of AMMONIUM STOCK SOLUTION 1, the mixture was stirred and the concentration of dissolved ortho-aminobenzoic acid was determined. The latter was 146 g/L.
48.0 g of anhydrous calcium chloride was added to 800 mL of water. The pH was adjusted to a value of 7.0 by adding hydrochloric acid. […] The concentration of dissolved ortho-aminobenzoic acid measured in the aqueous phase was 18.0 g/L. The solids fraction of the mixture was filtered off and dried at 80° C. for 48 h. […] 20.0 g of that was added to 25.0 mL of AMMONIUM STOCK SOLUTION 2, the mixture was stirred and the concentration of dissolved ortho-aminobenzoic acid was determined.

With calcium ortho-aminobenzoate the “concentration of dissolved ortho-aminobenzoic acid after salt exchange” value (20.0 g dried solid in 25.0 mL ammonium carbonate 210 g/L (Example 2)) was 175000 µg/mL and the “concentration of dissolved ortho-aminobenzoic acid after salt exchange” value (20.0 g dried solid in 50.0 mL ammonium carbonate 105 g/L (Example 1)) was 146000 µg/mL.
